Measurements reported in patent US20230046728A1, “TECHNOLOGIES USEFUL FOR ASSESSING PERMEABILITY” (FOG PHARMACEUTICALS, INC., priority 2019, published 2023).

Tests used:
[1] = system: Expi293 cells transfected with His-Halotag; assay: Library cell penetration assay, cell crash method (Example 6); assay type: in vitro ADME, human
Method: Animal cells (e.g., Expi293 cells or human HEK 293 cells) were seeded in tissue culture plates and cultured in Opti-MEM media. The cells were set in PETG flasks at a concentration of 6×10^5 cells/mL and a volume of 30 mL. The cell viability was checked to be above 90-93%. The flasks were placed in a shaking incubator at 300 rpm in 8% CO2.
After 24 hours of incubation, for each flask, one 1.5-mL Lo-bind tube and one 2-mL Lo-Bind tube were prepared. In the 1.5-mL tube, 30 μg of polyhistidine-tagged halotag (His-Halotag) plasmid and Opti-MEM media were added to provide a 1-mL mixture. In the 2-mL Lo-Bind tube, 60 μL of ExpiFectamine and 940 μL of Opti-MEM were added. After 5 minutes, the plasmid/Opti-MEM mixture was added to the ExpiFectamine/Opti-MEM mixture. The combined mixture was placed in an incubator at room temperature for 20 minutes, which was subsequently added to the flask.
After 48 hours of transfection, the transfected cells were checked for viability (90% or higher). The transfected cells were transferred to a protein Lo-Bind Eppendorf 96-well deep well plate (1000 μL), where each well contained 1 million cells in 500 μL of Expi293 media.
Solutions of candidate compounds, either individual peptides or peptides from a peptide library (DPLs), were received at a stock concentration of 10 mM and diluted in DMSO and kept in a “Source Plate”. For DPLs, the peptide concentration in the “Source Plate” was 1 mM, whereas for individual peptides, the concentration was either 100 μM (for a final concentration of 100 nM) or 10 μM (for a final concentration of 10 nM). […] of the DPL or individual peptide solution was added in triplicates to the 96-well plate. The cells were kept in a shaking incubator at 300 rpm and 37 ° C., 8% CO2 overnight for about 18-20 hours.
The following day, one of the following two methods was performed: i) capture beads method or ii) cell crash method.
Cell crash method: the 96-well plate was placed in the centrifuge at 300 g for 5 minutes. 720 μL of the supernatant was removed. The cells were resuspended in residual 200 μL of media. The suspensions were transferred to a 96-well v-bottom plate, which was placed in the centrifuge at 300 g for an additional 5 minutes. All remaining media was removed. The cell pellets were washed with 200 μL of PBS, mixed and placed back in the centrifuge at 300 g and 4 ° C. for an additional 5 minutes. The supernatant was removed and 80 μL of PBS was added.
80 μL of eluted proteins/peptides from the capture beads method or the PBD solution from the cell crash method was transferred into a deepwell low binding plate (500 μL). 80 μL of ammonium hydroxide was added. The plate was kept on a shaker at 37 ° C. for 3 hours. The plate was dried in a speedvac overnight.
The following day, the dried cell pellet was resuspended in 70 μL of 47.5% water with 0.1% FA/47.5% ACN with 0.1% FA/10 μM pepmix (10 mM stock)/5% fresh DMSO. The mixture was let sit in the plate for 1 hour to allow the dissolution of the pellet. If the sample appeared cloudy, more resuspension solution was added (50 μL at a time). 50 μL was transferred directly to the mass spec plate and the plate was sealed with the 384-well plate seal.
(§1) Once all samples were added (including cell free), the plate was placed in an autosampler of a mass spectrometer. For the mass spectrometry analysis, methods from example 1 were employed.
Results from certain assessment were presented blow. Cell crash method was utilized. Mass Shifted Peptide Theoretical Max signal is signal of an agent comprising —OH obtained when using the DhaA to convert input agent comprising —Cl into product agent comprising —OH form without involving cells (multiple agents may be converted simultaneously; in some embodiments, can be performed library by library). In some embodiments, each library pool plus positive and negative references was tested in a single well, which in some cases contain about a million or so cells. […]

[2] = target: DhaA enzyme (Rhodococcus rhodochrous, UniProt P0A3G2); assay: Cell free peptide/DhaA conversion, Mass Shifted Peptide Theoretical Max signal (Example 6); assay type: biochemical; conditions: DhaA converts —Cl input agent into —OH product agent, MS signal
Method: For the cell free systems, DPLs were diluted in a 500 μL DPW plate (library dilution plate). Individual peptides were diluted individually in low-bind tubes until making the final working dilution in PBS. At this point, the individual peptides were transferred to the library dilution plate. By having all final dilutions in one plate, a multichannel was used to transfer the diluted peptides to the cell free plates. The same design as “Source Plate” was used for the cell assay. For the peptide only plate, 45 μL of PBS was added to each well and 5 μL of the diluted library/peptide was added in triplicates. For peptide/DhaA plate, 5 μL of 50 μM DhaA enzyme was added, followed by 40 μL of PBS and 5 μL of the diluted library/peptide. Both plates were kept at the bench top thermomixer at 350 rpm and 37 ° C. overnight. The next day, 2 mL of a cell free solution was prepared with 1 mL of DMSO, 20 μL of PepMix and 980 μL of a 1:1 ratio of ACN/0.1% FA and H2O/0.1% FA. 5 μL of the cell free solution was added to a 384 well plate, followed by 45 μL of the cell free sample.
as §1
Results from certain assessment were presented blow. Cell crash method was utilized. Mass Shifted Peptide Theoretical Max signal is signal of an agent comprising —OH obtained when using the DhaA to convert input agent comprising —Cl into product agent comprising —OH form without involving cells (multiple agents may be converted simultaneously; in some embodiments, can be performed library by library). In some embodiments, each library pool plus positive and negative references was tested in a single well, which in some cases contain about a million or so cells. Each library pool is an individually prepared library with no purifications—all members mixed together along with side products, etc. “Cell Penetration Score” is calculated by dividing “Mass Shifted Peptide Signal in Cells” by “Mass Shifted Peptide Theoretical Max Signal” for each pair of replicates, then averaging those values across replicates; additionally or alternatively, COR and/or RPF may also be utilized.

[3] = Mass Shifted Peptide Signal in Cells divided by Theoretical Max Signal per replicate pair, averaged
[4] = library pool tested as mixture, MS signal of unconverted —Cl agent
[5] = library pool tested as mixture, MS signal of —OH agent
[6] = MS signal of unconverted —Cl agent from cells, library pool or individual peptide
[7] = MS signal of —OH agent from cells, library pool or individual peptide
[8] = Mass Shifted Peptide Signal in Cells divided by Mass Shifted Peptide Theoretical Max Signal, averaged across replicates

Sequence of DhaA enzyme (P0A3G2 whole entry): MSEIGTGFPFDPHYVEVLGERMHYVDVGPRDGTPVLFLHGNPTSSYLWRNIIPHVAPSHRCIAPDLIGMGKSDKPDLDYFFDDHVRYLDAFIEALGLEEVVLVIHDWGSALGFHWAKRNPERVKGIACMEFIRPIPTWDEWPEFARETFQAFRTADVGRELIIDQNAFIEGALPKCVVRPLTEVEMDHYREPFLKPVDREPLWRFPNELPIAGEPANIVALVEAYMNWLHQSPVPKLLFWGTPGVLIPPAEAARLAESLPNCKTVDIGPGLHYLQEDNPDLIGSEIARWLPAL

CNC(=O)[C@H](C)NC(=O)[C@H](C)NC(=O)[C@H](CO)NC(=O)[C@]1(C)CCCC=CCCCCCC[C@@](C)(NC(=O)[C@H](Cc2ccccc2)NC(=O)[C@@H](NC(=O)[C@H](CC(C)C)NC(=O)CCC(=O)NCCOCCOCCCCCCCl)[C@@H](C)O)C(=O)N[C@@H](C)C(=O)N[C@@H](Cc2ccc(O)cc2)C(=O)N[C@@H](Cc2c[nH]c3ccccc23)C(=O)N[C@@H](C)C(=O)N[C@@H](CCC(N)=O)C(=O)N[C@@H](CC2CCC2)C(=O)N1 [PEP000119, HaloTagO2-Leu-Thr-Phe-R8-Ala-Tyr-Trp-Ala-Gln-Cba-S5-Ser-Ala-Ala-NHMe]
Cell Penetration Score [1, 3]: 304 | Peptide Signal in Cells (from cells; agents comprising —Cl) [1, 4]: 1E+07 | Mass Shifted Peptide Signal in Cells [1, 5]: 2E+07

CNC(=O)[C@H](C)NC(=O)[C@H](C)NC(=O)[C@H](CO)NC(=O)[C@]1(C)CCCC=CCCCCCC[C@@](C)(NC(=O)[C@H](Cc2ccccc2)NC(=O)[C@@H](NC(=O)[C@H](CC(C)C)NC(=O)CCC(=O)NCCOCCOCCCCCCCl)[C@@H](C)O)C(=O)N[C@@H]([C@@H](C)O)C(=O)N[C@@H](Cc2ccc(O)cc2)C(=O)N[C@@H](Cc2c[nH]c3ccccc23)C(=O)N[C@@H](C)C(=O)N[C@@H](CCC(N)=O)C(=O)N[C@@H](CC2CCC2)C(=O)N1 [PEP000121, HaloTagO2-Leu-Thr-Phe-R8-Thr-Tyr-Trp-Ala-Gln-Cba-S5-Ser-Ala-Ala-NHMe]
Cell Penetration Score [1, 3]: 401 | Peptide Signal in Cells (from cells; agents comprising —Cl) [1, 4]: 1E+07 | Mass Shifted Peptide Signal in Cells [1, 5]: 2E+07

CC(C)C[C@H](NC(=O)CCC(=O)NCCOCCOCCCCCCCl)C(=O)N[C@H](C(=O)N[C@@H](Cc1ccccc1)C(=O)N[C@]1(C)CCCCCCC=CCCC[C@@](C)(C(=O)N[C@@H](CO)C(=O)N[C@@H](C)C(=O)N[C@@H](C)C(N)=O)NC(=O)[C@H](CC2CCC2)NC(=O)[C@H](C)NC(=O)[C@H](C)NC(=O)[C@H](Cc2c[nH]c3ccccc23)NC(=O)[C@H](Cc2ccc(O)cc2)NC(=O)[C@H](CCC(=O)O)NC1=O)[C@@H](C)O [PEP000122, HaloTagO2-Leu-Thr-Phe-R8-Glu-Tyr-Trp-Ala-Ala-Cba-S5-Ser-Ala-Ala-NH2]
Cell Penetration Score [1, 3]: 1188 | Peptide Signal in Cells (from cells; agents comprising —Cl) [1, 4]: 8E+06 | Mass Shifted Peptide Signal in Cells [1, 5]: 9E+07

CC(C)C[C@H](NC(=O)CCC(=O)NCCOCCOCCCCCCCl)C(=O)N[C@H](C(=O)N[C@@H](Cc1ccccc1)C(=O)N[C@]1(C)CCCCCCC=CCCC[C@@](C)(C(=O)N[C@@H](CO)C(=O)N[C@@H](C)C(=O)N[C@@H](C)C(N)=O)NC(=O)[C@H](CC2CCC2)NC(=O)[C@H]([C@@H](C)O)NC(=O)[C@H](C)NC(=O)[C@H](Cc2c[nH]c3ccccc23)NC(=O)[C@H](Cc2ccc(O)cc2)NC(=O)[C@H](CCC(=O)O)NC1=O)[C@@H](C)O [PEP000123, HaloTagO2-Leu-Thr-Phe-R8-Glu-Tyr-Trp-Ala-Thr-Cba-S5-Ser-Ala-Ala-NH2]
Peptide Signal in Cells (from cells; agents comprising —Cl) [1, 6]: 1E+07 | Mass Shifted Peptide Signal in Cells [1, 7]: 9E+07 | Cell Penetration Score [1, 8]: 1083

CNC(=O)[C@H](C)NC(=O)[C@H](C)NC(=O)[C@H](CO)NC(=O)[C@]1(C)CCCC=CCCCCCC[C@@](C)(NC(=O)[C@H](Cc2ccccc2)NC(=O)[C@@H](NC(=O)[C@H](CC(C)C)NC(=O)CCC(=O)NCCOCCOCCCCCCCl)[C@@H](C)O)C(=O)N[C@@H](CCC(=O)O)C(=O)N[C@@H](Cc2ccc(O)cc2)C(=O)N[C@@H](Cc2c[nH]c3ccccc23)C(=O)N[C@@H](C)C(=O)N[C@@H](C)C(=O)N[C@@H](CC2CCC2)C(=O)N1 [PEP000124, HaloTagO2-Leu-Thr-Phe-R8-Glu-Tyr-Trp-Ala-Ala-Cba-S5-Ser-Ala-Ala-NHMe]
Peptide Signal in Cells (from cells; agents comprising —Cl) [1, 6]: 3E+06 | Mass Shifted Peptide Signal in Cells [1, 7]: 5E+07 | Cell Penetration Score [1, 8]: 745

CNC(=O)[C@H](C)NC(=O)[C@H](C)NC(=O)[C@H](CO)NC(=O)[C@]1(C)CCCC=CCCCCCC[C@@](C)(NC(=O)[C@H](Cc2ccccc2)NC(=O)[C@@H](NC(=O)[C@H](CC(C)C)NC(=O)CCC(=O)NCCOCCOCCCCCCCl)[C@@H](C)O)C(=O)N[C@@H](CCC(=O)O)C(=O)N[C@@H](Cc2ccc(O)cc2)C(=O)N[C@@H](Cc2c[nH]c3ccccc23)C(=O)N[C@@H](C)C(=O)N[C@@H]([C@@H](C)O)C(=O)N[C@@H](CC2CCC2)C(=O)N1 [PEP000126, HaloTagO2-Leu-Thr-Phe-R8-Glu-Tyr-Trp-Ala-Thr-Cba-S5-Ser-Ala-Ala-NHMe]
Peptide Signal in Cells (from cells; agents comprising —Cl) [1, 6]: 4E+06 | Mass Shifted Peptide Signal in Cells [1, 7]: 4E+07 | Cell Penetration Score [1, 8]: 561

HaloTagO2-Leu-Thr-Phe-ReN-Ala-Tyr-Trp-Ala-Gln-Cba-Az-Ser-Ala-Ala-NH2 [PEP000127]
Peptide Signal in Cells (from cells; agents comprising —Cl) [1, 6]: 0E+00 | Mass Shifted Peptide Signal in Cells [1, 7]: 1E+06 | Cell Penetration Score [1, 8]: 17 | Mass Shifted Peptide Theoretical Max Signal [2]: 8E+06

HaloTagO2-Leu-Thr-Phe-ReN-Ala-Tyr-Trp-Ala-Gln-Cba-Az-Ser-Ala-Ala-NHMe [PEP000130]
Peptide Signal in Cells (from cells; agents comprising —Cl) [1, 6]: 5E+03 | Mass Shifted Peptide Signal in Cells [1, 7]: 2E+06 | Cell Penetration Score [1, 8]: 27 | Mass Shifted Peptide Theoretical Max Signal [2]: 7E+06

HaloTagO2-Leu-Thr-Phe-ReN-Glu-Tyr-Trp-Ala-Ala-Cba-Az-Ser-Ala-Ala-NH2 [PEP000133]
Peptide Signal in Cells (from cells; agents comprising —Cl) [1, 6]: 0E+00 | Mass Shifted Peptide Signal in Cells [1, 7]: 3E+05 | Cell Penetration Score [1, 8]: 5 | Mass Shifted Peptide Theoretical Max Signal [2]: 5E+06

HaloTagO2-Leu-Thr-Phe-ReN-Glu-Tyr-Trp-Ala-Ala-Cba-Az-Ser-Ala-Ala-NHMe [PEP000135]
Peptide Signal in Cells (from cells; agents comprising —Cl) [1, 6]: 0E+00 | Mass Shifted Peptide Signal in Cells [1, 7]: 3E+05 | Cell Penetration Score [1, 8]: 7 | Mass Shifted Peptide Theoretical Max Signal [2]: 5E+06

HaloTagO2-Leu-Thr-Phe-ReN-Glu-Tyr-Trp-Ala-Gln-Cba-Az-Ser-Ala-Ala-NH2 [PEP000128]
Peptide Signal in Cells (from cells; agents comprising —Cl) [1, 6]: 0E+00 | Mass Shifted Peptide Signal in Cells [1, 7]: 1E+05 | Cell Penetration Score [1, 8]: 3 | Mass Shifted Peptide Theoretical Max Signal [2]: 4E+06
